According to paper PMC8321240, “Cell-Type-Specific High Throughput Toxicity Testing in Human Midbrain Organoids” (Frontiers in Molecular Neuroscience, 2021):

How the values were obtained:
[1] = system: automated midbrain organoids (AMOs); assay: Primary organoid viability screen (ATP-based CellTiter-Glo 3D); format: cell-based, human; conditions: approx. 100 μM, 48 or 96 h, two AMO lines
Procedure: We cultured AMOs for 47 days in our automated system as described above. On day 47, we exchanged the organoid medium to a minimal tox medium (TM, consisting of DMEM/F-12 with 1% N2 supplement and 1% penicillin/streptomycin/glutamine) to reduce possible interference from antioxidants in the B27 media supplement. The next day, we treated the AMOs with the compounds from the library at a concentration of 100 μM in TM with some deviations due to solubility (see Supplementary Table 1 for a complete list of compounds including their final concentrations in the screen). DMSO control samples contained 0.5% (v/v) DMSO, which is equivalent to the amount of solvent in the samples that received compound treatment. After 48 h of incubation with the compounds, we either directly processed the organoids for the 48-h time point or renewed the compounds in TM once to achieve 96 h of incubation. […] We recorded the luminescence immediately after the transfer using a Synergy Mx plate reader (BioTek). […]
In detail: All compounds including their controls were arrayed on a single 96-well plate (see Supplementary Table 1 for well positions), and replicated across three plates for a total of n = 3 replicates per condition (except AMO line 2 at 48 h n = 2). […] During our analysis, we first averaged the two technical replicates from the luminescence measurement in Microsoft Excel, yielding one averaged luminescence value for each well of the original 96-well AMO plates. Then, we normalized the luminescence detected in each well to the mean luminescence of the four DMSO controls of the same plate to get a relative organoid viability value. Normalization was performed separately for each plate to account for and correct for potential differences during the luminescence measurements. […] We further assessed the homogeneity of the AMOs by calculating the coefficient of variation (CV) for the relative viabilities of the DMSO controls (i.e., we divided the standard deviations by the corresponding means and averaged the resulting CV values for the DMSO controls). […]

[2] = system: automated midbrain organoids (AMOs); assay: Dose-response analysis, ATP-based overall AMO viability; format: cell-based, human; conditions: 0.01-1,000 μM, 48 h + 6 days; viability, Map2 and TH readouts
Procedure: AMOs were cultured as described above for 47 days. On day 47, we exchanged their medium to tox medium (TM), initially without the addition of any compounds. […] For each compound, we included n = 8 controls per compound treated with the corresponding solvent at an amount equivalent to the highest compound concentration. To assess viability and cell type-specific toxicity in parallel and under the same conditions, we treated all samples with the compounds for 48 h, then exchanged their medium to standard culture medium without compounds and maintained them for an additional 6 days before analysis to allow breakdown and removal of cellular debris. Organoid viability and cell type-specific toxicity were analyzed as described for the primary screens. Here, we acquired five confocal planes spaced 36.6 μm apart in our Operetta high content imager. The image analysis of the AMOs for cell type-specific toxicity assessment required minor adjustments to account for the individual properties of the staining. […] For Map2, we performed Gaussian smoothing with a width of 10 px and omitted the additional sliding parabola filter. The other steps were performed as outlined for the primary cell-type-specific toxicity screen. […] In detail: The dose-response series, including the individual solvent controls, was performed for every compound on a separate 96-well plate of AMOs with initially n = 8 organoids per concentration. […] Data processing, including normalizations, was performed for each individual compound/plate as outlined above for the primary screens. Significant differences between the Map2 and TH content were also determined in GraphPad Prism as described for the primary screen and with the same parameters (multiple comparisons were performed for the different concentrations instead of compounds).

[3] = system: TH+ dopaminergic and Map2+ general neurons in AMOs; assay: Dose-response analysis, TH and Map2 content by high content imaging; format: cell-based, human; conditions: 48 h + 6 days
Procedure: All processing steps were conducted in an HTS-compatible automated liquid handling system (ALHS, a Biomek FXP liquid handling station). To quantify different cellular subpopulations within the AMOs, we employed our previously described (Renner et al., [2020], [2021b]) ALHS-compatible workflow for combined whole-mount staining and clearing, with minor modifications. We fixed the AMOs with 4% PFA (VWR) for 10–15 min and stained the entire aggregates with primary and secondary antibodies for 6 days each. The antibodies used in this study were as follows. Primary: mouse anti-Map2 (1:1,000, Merck Millipore, cat#: MAB3418) and rabbit anti-TH (1:500, Abcam, cat#: ab112). Secondary: donkey anti-mouse IgG, Alexa Fluor 488 conjugated (1:1,000, Thermo Fisher, cat#: A-21202) and donkey anti-rabbit IgG, Alexa Fluor 647 conjugated (1:1,000, Thermo Fisher, cat#: A-31573). The antibodies were diluted in blocking and permeabilization solution consisting of 6% BSA, 0.5% Triton-X 100 (Roth), 0.1% (w/v) sodium azide (Sigma-Aldrich) in PBS (Sigma-Aldrich) and immediately added after fixation following a triple rinse with PBS. We renewed the antibody solutions once after three days. As a nuclear counter stain, we added DAPI (1 μg/ml, Sigma-Aldrich) to the solution containing the secondary antibodies. Between primary and secondary antibody application and after finishing the secondary antibody incubation, we washed the samples overnight with 0.1% Triton X-100 in PBS, with a total of five exchanges of the washing solution. After the whole-mount staining, we performed BABB-based tissue clearing (Dent et al., [1989]) to allow image acquisition with single-cell resolution of the entire aggregates. For this purpose, we first dehydrated the AMOs via a stepwise methanol (Roth) series (25%, 50%, 70%, 90%, and 100%, each for 15 min). For clearing and imaging, we transferred them to organic solvent-resistant cyclo-olefin 96-well flat-bottom plates (“Screenstar”, Greiner Bio-One). Finally, we incubated the samples for 30 min in 1:1 (v/v) methanol/BABB (BABB consisted of benzyl alcohol (Sigma-Aldrich) and benzyl benzoate (Sigma-Aldrich) at a 1:1 (v/v) ratio) and then kept them in 100% BABB in the dark for storage and subsequent automated high content confocal fluorescent analysis.
We prepared and treated the AMOs with the compounds as described for the primary viability screen. On day 50, after 48 h of compound incubation, we replaced the medium with standard AMO medium and maintained the AMOs for 6 additional days under standard culture conditions. This additional time allows the cells killed by the compounds to be cleared from the aggregates. After the 6 days, we fixed the organoids with 4% PFA, whole-mount-stained them for TH and Map2, and tissue-cleared them as described above. To achieve uniform aggregate positioning within the wells before imaging, we tilted the plates off the horizontal plane at 60 degrees for a minimum of 5 min. We performed automated image acquisition of entire 96-well plates on an Operetta high content imager (Perkin Elmer) and analyzed images in the Harmony 4.1 software and/or Columbus version 2.6.0 as previously described (Renner et al., [2020]), with adjustments to account for the individual properties of the staining and samples. We acquired three medial planes for each organoid, spaced 36.6 μm apart to avoid double-sampling individual morphological features. For the analysis, we defined the organoid region in each image by summing all channels, removed small localized features with a median filter (10 px), and identified putative organoids/regions of interest (ROIs) with the “find image region” function. To identify bona fide AMOs and exclude image artifacts and dust, we selected the ROIs with an area >9,000 μm^2, roundness >0.4, and mean DAPI intensity >190 arbitrary brightness units (abu).

[4] = system: 2D cultured dopaminergic neurons; parameters: method as in Sharma et al., 2010; conditions: ref Sharma et al., 2010; cited from earlier work
[5] = system: 2D-cultured midbrain dopaminergic (mDA) neurons; assay: Viability of 2D-cultured mDA neurons (CellTiter-Glo 2.0) in the 2D vs 3D comparison; format: cell-based; conditions: Homo sapiens, Neuron, 2D mDA neurons, 48 h exposure from day 50
Procedure: To compare the toxic effects of compounds on AMOs and 2D-cultured midbrain dopaminergic neurons, we seeded and cultured both in parallel and generated them from the same smNPC starting cell population. For 2D dopaminergic neuron differentiation, smNPCs were seeded in 1% (v/v in KO-DMEM/F-12) Matrigel-coated 6-well plates and standard smNPC medium, following digestion by accutase as described above. From day 2 onwards, they were treated identically with the AMOs (i.e., they received the same media at the same timepoints). To work with the 2D dopaminergic neurons in a screening setting (and have the same plate format as the AMOs), we reseeded them to flat-bottom 96-well plates (“μCLEAR”, black, Greiner) at a density of 70,000 cells/well on day 48. On day 49, the medium of both 2D mDA neurons and 3D AMOs was exchanged to tox medium. The next day, we treated them with different concentrations (0.01, 0.1, 1, 10, 50, 100, 200, 500, and 1,000 μM; controls received the corresponding solvent at an amount equivalent to the highest compound concentration; n = 6 per concentration) of the compounds lindane (Sigma-Aldrich, in ethanol) and 6-hydroxydopamine hydrochloride (Sigma Aldrich, in DMSO) in tox medium. After 48 h of incubation, we measured the samples’ viability. For the AMOs, we used the CellTiter-Glo 3D cell viability assay as described above. We measured the 2D mDA neuron viability with the CellTiter-Glo 2.0 cell viability assay (Promega) according to the manufacturer’s instructions. In short, we brought the sample plates and reagents to room temperature for 30 min. We adjusted the media volume of the samples to 50 μl and added an equal volume (50 μl) of the CellTiter-Glo 2.0 reagent. We let the plate shake for 2 min at 900 rpm on a Thermomixer and then incubated them for 10 min at room temperature and protected from light. Immediately afterward, we measured the luminescence on a Synergy Mx plate reader. We outputted the results to Microsoft Excel and GraphPad Prism v9.0.1 for reformatting, plotting, and analysis. Data processing was performed as outlined for the CellTiter-Glo 3D-based viability assay above, except for the averaging of technical replicates, as measurements were performed directly in the culture plate without additional technical replicates.
All other data analysis steps including the statistical analysis to identify significant differences in toxicity between 2D and 3D (via multiple unpaired t-tests with the same parameters as above, corrected for using the Bonferroni-Dunn method, and considering padj <0.05 as significant), as well as dose-response curve fitting, were performed as described in detail above. The IC50 values were taken from the same regression/analysis as the dose-response curves.

[6] = system: automated midbrain organoids (AMOs); assay: Viability of 3D AMOs (CellTiter-Glo 3D) in the 2D vs 3D comparison; format: cell-based, human; conditions: for IC50: Homo sapiens, 48 h exposure from day 50
Procedure: We cultured AMOs for 47 days in our automated system as described above. On day 47, we exchanged the organoid medium to a minimal tox medium (TM, consisting of DMEM/F-12 with 1% N2 supplement and 1% penicillin/streptomycin/glutamine) to reduce possible interference from antioxidants in the B27 media supplement. The next day, we treated the AMOs with the compounds from the library at a concentration of 100 μM in TM with some deviations due to solubility (see Supplementary Table 1 for a complete list of compounds including their final concentrations in the screen). DMSO control samples contained 0.5% (v/v) DMSO, which is equivalent to the amount of solvent in the samples that received compound treatment. After 48 h of incubation with the compounds, we either directly processed the organoids for the 48-h time point or renewed the compounds in TM once to achieve 96 h of incubation. Following either 48 or 96 h of compound incubation, we used the CellTiter-Glo 3D cell viability assay (Promega) to measure the viability of individual organoids, as previously described (Renner et al., [2020]). Briefly, the 96-well plates of AMOs and the reagents were brought to room temperature for 30 min. We adjusted the media volume of each well to 55 μl and added an equal volume (55 μl) of the CellTiter-Glo 3D reagent. Next, the samples were shaken on a Thermomixer (Eppendorf) at 900 rpm for 5 min and then incubated for 25 min at room temperature while protected from light. To minimize signal cross-talk between adjacent wells, we transferred the contents of the clear 96-well culture plates to white/opaque 384-well Lumitrac plates (Greiner) with two technical replicates (20 μl each) per sample, after the incubation. We recorded the luminescence immediately after the transfer using a Synergy Mx plate reader (BioTek). We outputted the results to Microsoft Excel for reformatting and then transferred them to GraphPad Prism v9.0.1 (Graphpad Software, Inc.) for plotting and statistical analysis.
To compare the toxic effects of compounds on AMOs and 2D-cultured midbrain dopaminergic neurons, we seeded and cultured both in parallel and generated them from the same smNPC starting cell population. For 2D dopaminergic neuron differentiation, smNPCs were seeded in 1% (v/v in KO-DMEM/F-12) Matrigel-coated 6-well plates and standard smNPC medium, following digestion by accutase as described above. From day 2 onwards, they were treated identically with the AMOs (i.e., they received the same media at the same timepoints). To work with the 2D dopaminergic neurons in a screening setting (and have the same plate format as the AMOs), we reseeded them to flat-bottom 96-well plates (“μCLEAR”, black, Greiner) at a density of 70,000 cells/well on day 48. On day 49, the medium of both 2D mDA neurons and 3D AMOs was exchanged to tox medium. The next day, we treated them with different concentrations (0.01, 0.1, 1, 10, 50, 100, 200, 500, and 1,000 μM; controls received the corresponding solvent at an amount equivalent to the highest compound concentration; n = 6 per concentration) of the compounds lindane (Sigma-Aldrich, in ethanol) and 6-hydroxydopamine hydrochloride (Sigma Aldrich, in DMSO) in tox medium. After 48 h of incubation, we measured the samples’ viability. For the AMOs, we used the CellTiter-Glo 3D cell viability assay as described above. We measured the 2D mDA neuron viability with the CellTiter-Glo 2.0 cell viability assay (Promega) according to the manufacturer’s instructions. In short, we brought the sample plates and reagents to room temperature for 30 min. We adjusted the media volume of the samples to 50 μl and added an equal volume (50 μl) of the CellTiter-Glo 2.0 reagent. We let the plate shake for 2 min at 900 rpm on a Thermomixer and then incubated them for 10 min at room temperature and protected from light. Immediately afterward, we measured the luminescence on a Synergy Mx plate reader. […]

[7] = 0.01-1,000 μM (rotenone up to 100 μM), both AMO lines

Row | Compound | toxicity in the primary screens [1] | overall toxicity in the dose-response experiments [2] | Map2 content (general neurons) [3, 7] | TH content (dopaminergic neurons) [3, 7] | TH levels compared to Map2 levels ([3]; dose-response, padj < 0.05) | toxicity of lindane alone [4] | IC50 ([5]; AMO line 1 cell line) | IC50 ([5]; AMO line 2 cell line) | concentrations with significant 2D vs 3D viability difference ([6]; AMO line 1, 48 h) | concentrations with significant 2D vs 3D viability difference ([6]; AMO line 2, 48 h) | IC50 ([6]; AMO line 1, 3D) | IC50 ([6]; AMO line 2, 3D) | toxicity in 3D AMOs compared with 2D-cultured dopaminergic neurons ([6]; both cell lines, 48 h, 0.01-1,000 μM, padj < 0.05)
1 | O=C1C2CC=CCC2C(=O)N1SC(Cl)(Cl)Cl (centres unmarked) [captan] | intermediate toxicity | intermediate compared to ASS and the more toxic compounds | reduced | reduced | significantly reduced TH levels compared to Map2 over a broad range of concentrations | – | – | – | – | – | – | – | –
2 | Cl[C@H]1[C@H](Cl)[C@@H](Cl)[C@@H](Cl)[C@H](Cl)[C@H]1Cl [lindane] | strong possible toxicity | – | – | – | – | only mild toxicity | 202 µM | 201 µM | ≥ 200 µM | 200 µM | 130 µM | 130 µM | significantly more toxic in AMOs than in the 2D-cultured dopaminergic neurons
